According to patent US20120027720A1, “PEPTIDE CONJUGATES” (priority 2008, published 2012):
Where no end group is shown, it is not given here. [ ]: non-standard residue; d: D form. Met(O2) = CS(=O)(=O)CC[C@H](N)C(=O)O; Cha = N[C@@H](CC1CCCCC1)C(=O)O; AllylGly = C=CC[C@H](N)C(=O)O; hSer = N[C@@H](CCO)C(=O)O; Dap = NC[C@H](N)C(=O)O; βAla = NCCC(=O)O

Key:
Format in all cases: cell-based
CaCo2 monolayers [1] = test: Trans Epithelial Electric Resistance (TEER) across cell monolayer; set-up: key to Reduced TEER: + indicates an enhancement of the permeability of the tight junctions were observed; − indicates no enhancement of permeability was observed; details: Caco-2 monolayer
In short: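 Caco-2 cells, passage 40-60, grown 21-28 days on Transwell filters, equilibrated 30 min at 37° C in MHBSS pH 7.4. Test compound with Lucifer Yellow applied apically (n=3), incubated at 37° C with 50 RPM shaking; TEER measured at baseline and at 30, 60, 120 and 180 min.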

IEC6 cells = test: Real-Time Cell Electronic Sensing (RT-CES, ACEA) assay of cell morphology change; set-up: key: + indicates an enhancement of the permeability of the tight junctions were observed; − indicates no enhancement of permeability was observed; details: peptide at 5 mg/mL
Excerpt: Agonists of tight junctions can be identified by their ability to induce changes in morphology of cells in a monolayer of cells that comprise tight junctions. Such changes in the morphology of IEC6 cells may be measured using a Real-Time Cell Electronic Sensing protocol as described below.
Tight junction agonists can be identified using the following method an used in peptide conjugates of the invention:
Materials: cells: IEC6 passage 30-50, medium: DMEM 10% no calcium no magnesium, foetal bovine serum 0.1 unit per ml bovine insulin, buffers: phosphate buffered saline (PBS) no calcium no magnesium, trypsin: 0.25% porcine trypsin in HBSS no calcium no magnesium, flasks: 100×20 mm Tissue culture dish Falcon, plates: 16× E-Plate, machine: RT-CES™ 16× system (ACEA Biosciences, Inc., San Diego, Calif.)
Wash a 75 cm^2 flask of confluent IEC6 cells twice with 25 ml of PBS.
Add 2.5 ml of trypsin to the flask and place back in the incubator at 37° C.
Wash cells from the surface of the flask with 10 ml of serum containing media to quench the trypsin.
Pellet the cells by centrifugation at 1500 rpm for 5 minutes aspirate the media.
Resuspend the cell pellet in 10 ml of serum free media and centrifuge at 1500 rpm for 5 minutes aspirate the media and repeat for a total of 5 washes.
Take 100 μl of cells and mix with 100 μl of trypan blue.
Count the cells four times and use the average cell concentration.
Dilute the cells to 1×10^6 per ml in serum free media.
Add 100 μl of serum free media to each well of the ACEA plates to be used.
Insert the ACEA plate and press scan.
Run step 1 of the program to measure background.
Add 50 μl of cells to each well of the ACEA plate tap each slide of the plate 10 times and place the cells on the bench for 15 minutes to allow the cells to settle.
Insert the ACEA plate and run the scan step to check connections and run step 2-1 and 2-2 overnight.
Step 2-1 sample every 2 minutes 30 times.
Step 2-2 sample every 15 minutes 100 times.
The cell indices should be between 6-10 after the overnight run and should have reached a plateau.
Remove 100 μl of media carefully from each well.
Make up the compounds to be tested so that 50 μl contains 2× the desired final concentration.
Add 50 μl of compounds to the designated wells.
Scan the plate to check connections.
Step 3-1 sample every 2 minutes 30 times.
Step 3-2 sample every 15 minutes 100 times.

CaCo2 monolayers [2] = test: Epithelial flux of Lucifer Yellow through cell monolayer; set-up: key to Enhanced LY permeability: + indicates an enhancement of the permeability of the tight junctions were observed; − indicates no enhancement of permeability was observed; details: Lucifer Yellow flux, Caco-2 monolayer
In short: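 Caco-2 cells (passage 40-60) grown 21-28 days on Transwell filters, equilibrated 30 min at 37 °C in HBSS-HEPES pH 7.4; Lucifer Yellow with test compound applied apically, n=3 filters. Basolateral samples at 60, 120, 180 min read by fluorescence at 485/535 nm against standard curve; TEER also measured.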

Row | Substance | Reduced TEER (CaCo2 monolayers [1]) | ACEA 5 mg/mL (IEC6 cells) | Enhanced LY permeability (CaCo2 monolayers [2])
1 | 22 (L[dR]G[dI][dC][dF]; not fully specified; printed as Leu-D-Arg-Gly-D-Ile-D-Cys-D-Phe) [compound 22] | + | − | +
2 | 3 (FAIGRL; not fully specified; printed as Phe-Ala-Ile-Gly-Arg-Leu) [compound 3] | − | − | −
3 | 23 (LRGICF; not fully specified; printed as Leu-Arg-Gly-Ile-Cys-Phe) [compound 23] | + | − | +
4 | 32 ([dF][dC]IG[dR][dL]; not fully specified; printed as D-Phe-D-Cys-Ile-Gly-D-Arg-D-Leu) [compound 32] | + | − | +
5 | 6 (FCIGAL; not fully specified; printed as Phe-Cys-Ile-Gly-Ala-Leu) [compound 6] | − | + | −
6 | 33 ([dF]C[dI]G[dR][dL]; not fully specified; printed as D-Phe-Cys-D-Ile-Gly-D-Arg-D-Leu) [compound 33] | − | + | −
7 | 19 ([dL][dR]G[dI]C[dF]; not fully specified; printed as D-Leu-D-Arg-Gly-D-Ile-Cys-D-Phe) [compound 19] | + | + | +
8 | 29 ([dF][dC][dI]G[dR][dL]; not fully specified; printed as D-Phe-D-Cys-D-Ile-Gly-D-Arg-D-Leu) [compound 29] | + | − | +
9 | 17 ([dL][dR]G[dI][dC][dF]; also: peptide conjugate) [compound 17] | + | − | +
10 | 16 (FCIGR[dL]; also: peptide conjugate) [compound 16] | − | − | −
11 | 13 (F[dC]IGRL; also: peptide conjugate) [compound 13] | + | + | +
12 | 14 (FC[dI]GRL; also: peptide conjugate) [compound 14] | + | − | +
13 | 15 (FCIG[dR]L; also: peptide conjugate) [compound 15] | − | + | −
14 | 18 ([dL][dR]G[dI][dC]F; not fully specified; printed as D-Leu-D-Arg-Gly-D-Ile-D-Cys-Phe) [compound 18] | + | + | +
15 | 11 (FCIG; also: peptide conjugate) [compound 11] | − | + | 
16 | 8 (CIGRL; not fully specified; printed as Cys-Ile-Gly-Arg-Leu) [compound 8] | − | − | −
17 | 7 (FCIGRA; not fully specified; printed as Phe-Cys-Ile-Gly-Arg-Ala) [compound 7] | + | + | +

Row | Substance | Reduced TEER (CaCo2 monolayers [1]) | ACEA 5 mg/mL (IEC6 cells) | Enhanced LY permeability (CaCo2 monolayers [2])
18 | 5 (FCIARL; not fully specified; printed as Phe-Cys-Ile-Ala-Arg-Leu) [compound 5] | − | − | −
19 | 156 (F[Cha]IGRL-OH; also: peptide conjugate) [compound 156] | − |  | −
20 | 209 (F[AllylGly]VGRL-NH2; N-terminus assumed; SMILES C=CC[C@H](NC(=O)[C@@H](N)Cc1ccccc1)C(=O)N[C@H](C(=O)NCC(=O)N[C@@H](CCCNC(=N)N)C(=O)N[C@@H](CC(C)C)C(N)=O)C(C)C) [compound 209] | − |  | −
21 | 190 (T[AllylGly]IGRL-NH2; N-terminus assumed; SMILES C=CC[C@H](NC(=O)[C@@H](N)[C@@H](C)O)C(=O)N[C@H](C(=O)NCC(=O)N[C@@H](CCCNC(=N)N)C(=O)N[C@@H](CC(C)C)C(N)=O)[C@@H](C)CC) [compound 190] | − |  | −
22 | 39 ([dL][dR]GI[dC]F; not fully specified) [compound 39] | − |  | −
23 | 35 (F[dC]IG[dR]L; not fully specified; printed as Phe-D-Cys-Ile-Gly-D-Arg-Leu) [compound 35] | + |  | +
24 | 101 (H-FCIGR[Cha]-OH; SMILES CC[C@H](C)[C@H](NC(=O)[C@H](CS)NC(=O)[C@@H](N)Cc1ccccc1)C(=O)NCC(=O)N[C@@H](CCCNC(=N)N)C(=O)N[C@@H](CC1CCCCC1)C(=O)O) [compound 101] | + |  | +
25 | 160 (F[Dap]IGRL; not fully specified; printed as Phe-Dpr-Ile-Gly-Arg-Leu; also: peptide conjugate) [compound 160] | + |  | +
26 | 196 (W[AllylGly]IGRL-NH2; N-terminus assumed; SMILES C=CC[C@H](NC(=O)[C@@H](N)Cc1c[nH]c2ccccc12)C(=O)N[C@H](C(=O)NCC(=O)N[C@@H](CCCNC(=N)N)C(=O)N[C@@H](CC(C)C)C(N)=O)[C@@H](C)CC) [compound 196] | − |  | +
27 | 28 (LRGIC[dF]; not fully specified; printed as Leu-Arg-Gly-Ile-Cys-D-Phe) [compound 28] | − |  | −
28 | 144 (H-F[Met(O2)]IGRL-OH; not fully specified; also: peptide conjugate, Xaa: 'may be' L-methionine-sulfone) [compound 144] | − |  | −
29 | 192 (V[AllylGly]IGRL-NH2; N-terminus assumed; SMILES C=CC[C@H](NC(=O)[C@@H](N)C(C)C)C(=O)N[C@H](C(=O)NCC(=O)N[C@@H](CCCNC(=N)N)C(=O)N[C@@H](CC(C)C)C(N)=O)[C@@H](C)CC) [compound 192] | − |  | −
30 | 148 (Ac-F[hSer]IGRA; also: peptide conjugate) [compound 148] | + |  | +
31 | 96 (H-FCIGR[βAla]-OH; SMILES CC[C@H](C)[C@H](NC(=O)[C@H](CS)NC(=O)[C@@H](N)Cc1ccccc1)C(=O)NCC(=O)N[C@@H](CCCNC(=N)N)C(=O)NCCC(=O)O) [compound 96] | + |  | +
32 | 205 (F[AllylGly]TGRL-NH2; N-terminus assumed; SMILES C=CC[C@H](NC(=O)[C@@H](N)Cc1ccccc1)C(=O)N[C@H](C(=O)NCC(=O)N[C@@H](CCCNC(=N)N)C(=O)N[C@@H](CC(C)C)C(N)=O)[C@@H](C)O) [compound 205] | − |  | −
33 | 220 (F[AllylGly]ITRL-NH2; N-terminus assumed; SMILES C=CC[C@H](NC(=O)[C@@H](N)Cc1ccccc1)C(=O)N[C@H](C(=O)N[C@H](C(=O)N[C@@H](CCCNC(=N)N)C(=O)N[C@@H](CC(C)C)C(N)=O)[C@@H](C)O)[C@@H](C)CC) [compound 220] | − |  | −
